From PubChem BioAssay (NCI)
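Growth conditions: 96-well plates. Treatment: test compound, 48 hours, 5 concentrations. Analysis: linear interpolation between bracketing concentrations; unreached endpoints set to highest concentration. TGI is the concentration that stops growth completely.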

How the values were obtained:
Assay in all cases: NCI tumour cell line growth inhibition, 48 h
[1] = test system: IGROV1 ovarian
[2] = test system: SNB-75 CNS
[3] = test system: UACC-257 melanoma
[4] = test system: KM12 colon
[5] = test system: HCT-15 colon
[6] = test system: K-562 leukemia
[7] = test system: SK-MEL-5 melanoma
[8] = test system: OVCAR-4 ovarian
[9] = test system: SNB-19 CNS
[10] = test system: SN12C renal
[11] = test system: COLO 205 colon
[12] = test system: SK-OV-3 ovarian
[13] = test system: M14 melanoma
[14] = test system: NCI-H460 lung
[15] = test system: 786-0 renal
[16] = test system: RPMI-8226 leukemia
[17] = test system: HCC-2998 colon
[18] = test system: DU-145 prostate
[19] = test system: OVCAR-3 ovarian
[20] = test system: BT-549 breast
[21] = test system: U251 CNS
[22] = test system: HOP-62 NSCLC
[23] = test system: LOX IMVI melanoma
[24] = test system: SK-MEL-28 melanoma
[25] = test system: NCI-H522 lung
[26] = test system: SF-268 CNS
[27] = test system: HCT-116 colon
[28] = test system: OVCAR-8 ovarian
[29] = test system: MDA-N
[30] = test system: MDA-MB-435
[31] = test system: SR leukemia
[32] = test system: CCRF-CEM leukemia
[33] = test system: SW-620 colon
[34] = test system: HL-60(TB) leukemia
[35] = test system: TK-10 renal
[36] = test system: NCI-H23 lung
[37] = test system: OVCAR-5 ovarian
[38] = test system: MALME-3M melanoma
[39] = test system: SF-295 CNS
[40] = test system: HT29 colon
[41] = test system: MOLT-4 leukemia
[42] = test system: PC-3 prostate
[43] = test system: A549 NSCLC
[44] = test system: ACHN renal
[45] = test system: NCI-H226 lung
[46] = test system: SF-539 CNS
[47] = test system: MDA-MB-231 breast
[48] = test system: SK-MEL-2 melanoma
[49] = test system: MCF7 breast
[50] = test system: RXF 393 renal
[51] = test system: HS 578T breast
[52] = test system: NCI/ADR-RES ovarian
[53] = test system: EKVX NSCLC
[54] = test system: UO-31 renal
[55] = test system: UACC-62 melanoma
[56] = test system: A498 renal
[57] = test system: CAKI-1 renal
[58] = test system: HOP-92 NSCLC

How did the TGI [1] turn out when `O=C(CCCN1CCC(Nc2ccccc2)(c2nnnn2C2CCCCC2)CC1)c1ccc(F)cc1` was run?
Its TGI is 23.2 µM.

What about the TGI [2] of the same molecule?
Its TGI is 21.9 µM.

What about the TGI [3] of the same molecule?
Its TGI is 6.65 µM.

What about the TGI [4] of the same molecule?
The TGI was 21.5 µM.

And the TGI [5]?
Its TGI is over 100 µM.

And the TGI [6]?
Its TGI is 33.9 µM.

What about the TGI [7] of the same molecule?
The TGI was 3 µM.

And the TGI [8]?
Its TGI is 20.5 µM.

And the TGI [9]?
Its TGI is 21.4 µM.

And the TGI [10]?
Its TGI is 41 µM.

And the TGI [11]?
Its TGI is 4.77 µM.

And the TGI [12]?
The TGI was 26.1 µM.

What about the TGI [13] of the same molecule?
The TGI was 3.98 µM.

What about the TGI [14] of the same molecule?
Its TGI is 35 µM.

What about the TGI [15] of the same molecule?
The TGI was 15.9 µM.

And the TGI [16]?
Its TGI is 25.1 µM.

What about the TGI [17] of the same molecule?
Its TGI is 32.1 µM.

And the TGI [18]?
The TGI was 15.5 µM.

And the TGI [19]?
Its TGI is 24 µM.

What about the TGI [20] of the same molecule?
Its TGI is 20.4 µM.

And the TGI [21]?
Its TGI is 18 µM.

What about the TGI [22] of the same molecule?
The TGI was 21.3 µM.

And the TGI [23]?
The TGI was over 100 µM.

And the TGI [24]?
The TGI was 12.3 µM.

And the TGI [25]?
Its TGI is 19.3 µM.

And the TGI [26]?
Its TGI is 9.25 µM.

And the TGI [27]?
Its TGI is 16.4 µM.

What about the TGI [28] of the same molecule?
Its TGI is 68.3 µM.

What about the TGI [29] of the same molecule?
The TGI was 18.1 µM.

What about the TGI [30] of the same molecule?
Its TGI is 19.4 µM.

What about the TGI [31] of the same molecule?
Its TGI is over 100 µM.

And the TGI [32]?
The TGI was 44.6 µM.

And the TGI [33]?
The TGI was over 100 µM.

What about the TGI [34] of the same molecule?
The TGI was 29.6 µM.

What about the TGI [35] of the same molecule?
Its TGI is 26.1 µM.

And the TGI [36]?
The TGI was 28.8 µM.

What about the TGI [37] of the same molecule?
The TGI was 19.6 µM.

And the TGI [38]?
The TGI was 27.4 µM.

What about the TGI [39] of the same molecule?
Its TGI is 41.8 µM.

What about the TGI [40] of the same molecule?
The TGI was 14.6 µM.

What about the TGI [41] of the same molecule?
Its TGI is 46.2 µM.

And the TGI [42]?
Its TGI is 24.7 µM.

What about the TGI [43] of the same molecule?
The TGI was 20.4 µM.

And the TGI [44]?
The TGI was 16.7 µM.

And the TGI [45]?
The TGI was 36.5 µM.

What about the TGI [46] of the same molecule?
Its TGI is 5.66 µM.

And the TGI [47]?
Its TGI is 24.2 µM.

What about the TGI [48] of the same molecule?
The TGI was 23.7 µM.

What about the TGI [49] of the same molecule?
Its TGI is 5.74 µM.

And the TGI [50]?
Its TGI is 22.4 µM.

And the TGI [51]?
Its TGI is 29.2 µM.

What about the TGI [52] of the same molecule?
The TGI was over 100 µM.

What about the TGI [53] of the same molecule?
Its TGI is 9.53 µM.

And the TGI [54]?
The TGI was 12.8 µM.

And the TGI [55]?
Its TGI is 23.9 µM.

For `CC(C)CC(=O)NC(C(=O)NC(C(=O)NC(CC(C)C)C(O)CC(=O)NC(C)C(=O)NC(CC(C)C)C(O)CC(=O)O)C(C)C)C(C)C` (stereo not given), which TGI [1] is on record?
Its TGI is over 100 µM.

What about the TGI [2] of the same molecule?
Its TGI is over 100 µM.

What about the TGI [3] of the same molecule?
Its TGI is over 100 µM.

What about the TGI [4] of the same molecule?
Its TGI is over 100 µM.

What about the TGI [5] of the same molecule?
Its TGI is over 100 µM.

What about the TGI [6] of the same molecule?
The TGI was over 100 µM.

And the TGI [7]?
The TGI was over 100 µM.

What about the TGI [8] of the same molecule?
The TGI was over 100 µM.

What about the TGI [9] of the same molecule?
The TGI was over 100 µM.

And the TGI [10]?
Its TGI is over 100 µM.

What about the TGI [11] of the same molecule?
Its TGI is over 100 µM.

And the TGI [12]?
The TGI was over 100 µM.

And the TGI [13]?
The TGI was over 100 µM.

And the TGI [14]?
The TGI was over 100 µM.

What about the TGI [15] of the same molecule?
Its TGI is over 100 µM.

What about the TGI [16] of the same molecule?
The TGI was over 100 µM.

What about the TGI [17] of the same molecule?
The TGI was over 100 µM.

And the TGI [56]?
Its TGI is over 100 µM.

And the TGI [18]?
The TGI was over 100 µM.

What about the TGI [19] of the same molecule?
Its TGI is over 100 µM.

What about the TGI [20] of the same molecule?
The TGI was over 100 µM.

And the TGI [21]?
Its TGI is over 100 µM.

What about the TGI [22] of the same molecule?
Its TGI is over 100 µM.

What about the TGI [23] of the same molecule?
Its TGI is over 100 µM.

And the TGI [24]?
The TGI was over 100 µM.

And the TGI [25]?
The TGI was over 100 µM.

And the TGI [26]?
Its TGI is over 100 µM.

What about the TGI [27] of the same molecule?
Its TGI is over 100 µM.

What about the TGI [28] of the same molecule?
The TGI was over 100 µM.

And the TGI [29]?
The TGI was over 100 µM.

And the TGI [30]?
The TGI was over 100 µM.

What about the TGI [31] of the same molecule?
Its TGI is over 100 µM.

And the TGI [32]?
Its TGI is over 100 µM.

And the TGI [33]?
The TGI was over 100 µM.

What about the TGI [35] of the same molecule?
Its TGI is over 100 µM.

And the TGI [57]?
Its TGI is over 100 µM.

What about the TGI [58] of the same molecule?
Its TGI is over 100 µM.

And the TGI [36]?
Its TGI is over 100 µM.

What about the TGI [37] of the same molecule?
The TGI was over 100 µM.

What about the TGI [38] of the same molecule?
The TGI was over 100 µM.

What about the TGI [39] of the same molecule?
The TGI was over 100 µM.

And the TGI [40]?
The TGI was over 100 µM.

What about the TGI [41] of the same molecule?
The TGI was over 100 µM.

What about the TGI [42] of the same molecule?
The TGI was over 100 µM.

And the TGI [43]?
Its TGI is over 100 µM.

And the TGI [44]?
The TGI was over 100 µM.

And the TGI [45]?
The TGI was over 100 µM.

And the TGI [46]?
Its TGI is over 100 µM.

And the TGI [47]?
The TGI was over 100 µM.

And the TGI [48]?
Its TGI is over 100 µM.

And the TGI [49]?
The TGI was over 100 µM.

What about the TGI [52] of the same molecule?
Its TGI is over 100 µM.

And the TGI [53]?
Its TGI is over 100 µM.

And the TGI [54]?
Its TGI is over 100 µM.

What about the TGI [55] of the same molecule?
Its TGI is over 100 µM.
